This note sets out measurements from paper PMC6225302, “Depsidone Derivatives and a Cyclopeptide Produced by Marine Fungus Aspergillus unguis under Chemical Induction and by Its Plasma Induced Mutant” (Molecules : A Journal of Synthetic Chemistry and Natural …, 2018).

Structures are written as SMILES. In brackets after ≈: the same amount, converted by molar mass. Several values for one entry are separate records, joined by “and”; a condition that tells them apart may be missing. Identical values can stand only once.

As usually defined, the EC50 is the concentration needed to bring the measured effect to its halfway point. A low value points to a more potent agent. One may read the zone of inhibition as the extent of the growth-free halo in a diffusion test. As usually defined, the IC50 is the midpoint of a concentration-inhibition curve. Read a high IC50 as lower potency. As usually defined, the LC50 is the concentration that kills 50% of the test population.

Data set [1] can be described thus: DPPH free radical scavenging assay. The conditions noted are these: 0.16 mM DPPH, 30 min in darkness at room temperature. As for the experimental part: The free radical scavenging potentials of compounds 1‒10 were evaluated in 96-well plates using the DPPH free radical scavenging assay described by Sharma and Bhat. A total of 100 μL of the reaction mixture was composed of 50 μL of 0.16 mM DPPH (Sigma-Aldrich, St. Louis, MO, USA) in methanol and 50 μL of the test compound (in DMSO) with different concentrations (Asample). The reaction mixture was incubated for 30 min in darkness at room temperature. Meanwhile, 50 μL of 0.16 mM DPPH with 50 μL of DMSO was used as control (Acontrol), 50 μL of methanol and 50 μL of different concentrations of the test compound in DMSO were used as the sample blanks (Asample blank), 50 μL methanol with 50 μL DMSO was used as the blank (Ablank), while vitamin C was taken as a positive control. The absorbance was measured at 517 nm on the microplate reader. Scavenging capacity (%)=[(Acontrol−Ablank)−(Asample−Asample blank)]/(Acontrol−Ablank)×100%
The EC50 value is the concentration required to scavenge 50% of DPPH radicals. Likewise, the EC50 was calculated using Origin 8.0 plotting and cubic polynomial regression.

Data set [2] relates to Vibrio parahemolyticus (ZouB). Briefly: Antimicrobial paper disc diffusion method. It counts as cell-based. The conditions noted are these: Vibrio; V. parahemolyticus; incomplete inhibition; 10 μg per disc; paper disc diameter 6.0 mm; mean ± SD of three replicates. As for the experimental part: (§1) Preliminary antimicrobial tests for compounds 1‒10 were carried out against pathogenetic strains, including Pseudomonas aeruginosa (ATCC 9027), methicillin-resistant Staphylococcus aureus (A7983, clinical isolate donated by Zhijun Yu in Dalian Friendship Hospital, Dalian, China), Vibrio parahemolyticus (ZouB, aquatic pathogen donated by Chongqing Wen in College of Fishery, Guangdong Ocean University, Zhanjiang, China), and Candida albicans (ATCC 10231) using the disc diffusion method. Muller Hinton agar (MHA) and Sabouraud agar (SA) were used for antibacterial and antifungal tests, respectively. For each sample, 10 μg was added onto paper disc (diameter of 6 mm) for tests. The minimum inhibition concentrations (MICs) of the compounds were tested using microdilution methods. Ampicillin and ketoconazole were taken as positive controls for antibacterial and antifungal tests, respectively. Solvents (MeOH and DMSO) were used as blank controls.

The subject of data set [3] is methicillin-resistant Staphylococcus aureus (A7983, clinical isolate). Briefly: Antimicrobial paper disc diffusion method. Format: cell-based. The conditions noted are these: Staphylococcus aureus, MRSA. As for the experimental part: as §1
In general terms: Agar diffusion results depend on both activity and mobility in agar.

The subject of data set [4] is Pseudomonas aeruginosa (ATCC 9027). Nature of the data set: Antimicrobial paper disc diffusion method. It counts as cell-based. The following applies: Pseudomonas aeruginosa, ATCC9027; P. aeruginosa; 10 μg per disc; paper disc diameter 6.0 mm; mean ± SD of three replicates. The method, then:
as §1

Data set [5] deals with Candida albicans (ATCC 10231). Nature of the data set: Antimicrobial paper disc diffusion method. Format: cell-based. The following applies: Candida albicans, ATCC10231; C. albicans; 10 μg per disc; paper disc diameter 6.0 mm; mean ± SD of three replicates. The method, then: as §1
The test system of data set [6] is methicillin-resistant Staphylococcus aureus (A7983, clinical isolate). Nature of the data set: Antimicrobial microdilution method (MIC). It counts as cell-based. The conditions noted are these: MRSA. The method, then: as §1
The subject of data set [7] is Pseudomonas aeruginosa (ATCC 9027). Briefly: Antimicrobial microdilution method (MIC). The following applies: ATCC9027, P. aeruginosa. Format: cell-based. As for the experimental part:
as §1

Data set [8] deals with Candida albicans (ATCC 10231). Nature of the data set: Antimicrobial microdilution method (MIC). Format: cell-based. The following applies: ATCC10231, C. albicans. The method, then:
as §1

The target of data set [9] is T1, Acetylcholinesterase (AChE, from electric eels) (Electrophorus electricus, UniProt O42275).
T1 construct: purchased Sigma-Aldrich
T1 sequence (O42275 24-633): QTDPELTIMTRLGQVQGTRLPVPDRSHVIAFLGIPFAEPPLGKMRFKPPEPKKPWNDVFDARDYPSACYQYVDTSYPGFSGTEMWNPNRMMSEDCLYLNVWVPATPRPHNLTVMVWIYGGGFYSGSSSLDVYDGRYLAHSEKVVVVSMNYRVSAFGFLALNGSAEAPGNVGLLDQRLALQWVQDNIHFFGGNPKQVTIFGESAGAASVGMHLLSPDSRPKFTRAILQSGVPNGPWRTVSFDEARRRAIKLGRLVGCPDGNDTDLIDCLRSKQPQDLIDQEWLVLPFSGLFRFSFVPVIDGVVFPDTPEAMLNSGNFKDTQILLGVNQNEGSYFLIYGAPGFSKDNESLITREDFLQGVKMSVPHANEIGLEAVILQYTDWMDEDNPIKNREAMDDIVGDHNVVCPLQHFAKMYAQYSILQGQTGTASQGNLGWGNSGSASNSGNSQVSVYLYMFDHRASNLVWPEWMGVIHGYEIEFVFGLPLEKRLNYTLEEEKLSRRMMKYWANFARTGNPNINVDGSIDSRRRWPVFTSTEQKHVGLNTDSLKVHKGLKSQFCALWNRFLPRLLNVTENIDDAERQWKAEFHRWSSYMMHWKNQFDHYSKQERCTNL
Nature of the data set: AChE inhibition assay (modified Ellman's method). The conditions noted are these: AChE Inhibitory Activity (IC50), 0.2 U/mL, 37 °C. It counts as biochemical. As for the experimental part: Acetylcholinesterase (AChE, from electric eels), acetythiocholine iodide (ATCh), 5,5-dithiobis-(2-nitrobenzoic acid) (DTNB), and bovine serum albumin (BSA, A1933) were purchased from Sigma-Aldrich. 100 mM PBS (pH = 7.4) was prepared with K2HPO4 and KH2PO4. In vitro AChE inhibitory activity was measured in 96-well plates using modified Ellman’s methods. […] Each well contained 1 μL of prepared sample, 49 μL of PBS, 10 μL of enzyme with a final concentration of 0.2 U/mL in BSA ([…] in PBS), and 20 μL of DTNB (5 mM in PBS). Then, the plates were preincubated at 37 °C for 10 min. Afterwards, 20 μL of ATCh (10 mM in PBS) was added into the well. After incubation at 37 °C for 20 min, the 96-well plates were read at 405 nm on the microplate reader, and the inhibition ratios to AChE were calculated using the following equation, where Asample blank stands for the absorbance of a well without enzyme, Asample stands for the absorbance of the treatment, Acontorl stands for the absorbance of the well without the sample, and Ablank stands for the absorbance of the well without the sample and enzyme. Donepezil was taken as a positive control. Inhibition of AChE (%)=[(Acontrol−Ablank)−(Asample−Asample blank)]/(Acontrol−Ablank)×100%
The inhibition rates and concentration logarithm (lnC) values were imported into the Origin 8.0 software (OriginLab Co., Ltd., Northampton, MA, USA). The cubic polynomial regression equation was used to calculate ln(IC50). Then, IC50 was calculated using Microsoft Excel.
(In general: In Ellman's method for cholinesterases, released thiocholine reacts with DTNB.)

The nature of data set [10]: Brine shrimp larva lethality test. It counts as in vivo, Artemia salina. The following applies: Artemia salina (brine shrimp) larvae, live brine shrimp larvae in 96-well plate, other: immersion in seawater containing the compound, 24 h at 28 °C, read-out: Larvicidal Activity (LC50). As for the experimental part:
(§2) Compounds 1‒10 were evaluated for larvicidality using the brine shrimp (Artemia salina) larva lethality test. 0.15 g of frozen eggs of brine shrimp larva (purchased from Aijia Aquarium Co., Zhanjiang, China) were activated at room temperature for 12 h. After activation, eggs were added to 1 L of artificial seawater (3% sea salt), ventilated with air for 420 mL/min, then kept at a brightness at 1000 lux and incubated at 28 °C for 24 h. After incubation, the larvae were induced to the top of the separating funnel by phototaxis, and the dead ones on bottom were discharged. Then, in each well of the 96-well plate, 1 μL of test compounds (in DMSO) with different concentrations and 99 μL of seawater containing 20‒30 live larvae were added. After incubation under light at 28 °C for 24 h, recorded the numbers of dead larvae. Finally, 10 μL of the Lucus reagent were added into each well and the total number of brine shrimp larva in the well were counted. DMSO and Hg(NO3)2 were used as blank control and positive control, respectively. Lethality rate (%)=(lethality of treatment−lethality of blank control)/survival rate of blank control×100%
(§3) The brine shrimp larva LC50 value is the concentration required to kill 50% of the larvae. Likewise, the LC50 was calculated using Origin 8.0 plotting and cubic polynomial regression.

Data set [11] deals with Vibrio parahemolyticus (ZouB). Briefly: microbe, parasite or virus in culture. It counts as cell-based. The conditions noted are these: Vibrio. As for the experimental part:
as §1

Data set [12] has as its system brine shrimp (Artemia salina) larva. Briefly: Brine shrimp larva lethality test. The conditions noted are these: brine shrimp larvae, 24 h at 28 °C; read-out: Larvicidal Activity (LC50). It counts as in vivo. As for the experimental part: as §2, §3

With `CC=C(C)c1c(Cl)c(O)c(C)c2c1Oc1cc(O)c(Cl)c(C)c1C(=O)O2` [Compound 7, aspergillusidone C], the EC50 in data set [1] is greater than 102 µM. Besides, the zone of inhibition at 10 µg/disc in data set [2] turned out to be 9.7 ± 0.6 mm; in data set [3], 13.7 ± 2.3 mm; in [4] it was 10 mm; in data set [5] it was 7.9 ± 0.2 mm. Further, the MIC in data set [6] is greater than 102 µM; in data set [7], 25.6 µM (≈ 10.1 µg/mL); in [8] it was greater than 102 µM; in [11] it was greater than 102 µM. The IC50 in data set [9] was greater than 102 µM. Also, the LC50 at 24 h in data set [10] stood at 72 µM.
On to `CC=C(C)c1cc(O)c(C)c2c1Oc1cc(O)c(Cl)c(C)c1C(=O)O2` [Compound 8, 2-chlorounguinol], for which the EC50 in data set [1] was greater than 102 µM. For the same molecule, the zone of inhibition at 10 µg/disc in data set [2] worked out at 8.3 ± 0.6 mm; in data set [3], 17 mm; in [4], 11.1 ± 0.2 mm; in [5], 10 mm. Further, the MIC in [6] was 25.6 µM (≈ 9.24 µg/mL); in [7], 51.2 µM (≈ 18.5 µg/mL); in data set [8] it was greater than 102 µM; in data set [11], greater than 102 µM. Besides, the IC50 in data set [9] is greater than 102 µM. The LC50 at 24 h in [10] was found to be 75.9 µM.
In the case of `CC=C(C)c1c2c(c(C)c(O)c1C(=O)O)OC(=O)c1c(C)cc(O)cc1O2` [Compound 9, aspergillusidone A], the EC50 in [1] was greater than 102 µM. The zone of inhibition at 10 µg/disc in data set [2] is 8.3 ± 0.6 mm; in data set [3], 17.7 ± 0.6 mm; in data set [4] it was 16 mm; in [5] it was 15.5 ± 2.2 mm. Also, the MIC in [6] was 12.8 µM (≈ 4.74 µg/mL); in data set [7] it was 102 µM (≈ 37.9 µg/mL); in data set [8], 6.4 µM (≈ 2.37 µg/mL); in data set [11], greater than 102 µM. For the same molecule, the IC50 in [9] is 56.7 µM and 56.8 µM. Also, in [10], the LC50 at 24 h turned out to be 51.2 µM.
`O=[N+]([O-])[O-].O=[N+]([O-])[O-].[Hg+2]` [Hg(NO3)2, reference compound]: in [12], the LC50 was determined as 77 µM.
